From a melting point compilation (Tetko et al.; mined from patent text by program, amines drawn as free bases though some values may be those of a salt)
Residues, ends and D or L forms follow the SMILES beside them. *: point of attachment. Boc = CC(C)(C)OC(=O)*

| SMILES | melting point [°C] |
| --- | --- |
| COC(=O)C(C)(C)Nc1ncc(I)cc1[N+](=O)[O-] | 121 to 122 |
| O=C(O)C(=O)NC1N=C2C(=Cc3ccccc32)S1 (stereo not drawn) | 229 to 231 |
| O=C(O)C=CC(=O)Oc1ccc(Nc2ccccc2)cc1 | 139 to 142 |
| O=C1OC(=O)c2c1ccc1sc3ccccc3c21 | 248 to 250 |
| COc1ncccc1-c1cncc(OC2SCC(O)C(O)C2O)c1 (stereo not drawn) | 209 |
| Clc1cccc(C(c2ccc3[nH]cnc3c2)n2ccnc2)c1 (stereo not drawn) | 108 |
| Cc1cc(=O)c(-c2ccccc2)c(-c2ccc(S(N)(=O)=O)cc2)o1 | 218 |
| NS(=O)(=O)c1ccc(-c2oc(Cl)nc2-c2ccccc2)cc1 | 158 to 159 |
| COCN(c1cccc2cc(-c3nc[nH]n3)n(COC)c12)S(=O)(=O)c1cccs1 | 97 to 99 |
| CON=C(c1ccccc1)c1ccccc1N | 138 |
| Cc1ccc([N+](=O)[O-])c(OCc2ccccc2)c1 | 49 to 51 |
| O=C(O)CCCCC(=O)NC1C=CCCCC1 (stereo not drawn) | 132 to 133 |
| O=C(O)CCC(=O)c1ccc(CCNS(=O)(=O)CCc2ccc(Cl)cc2)cc1 | 112 |
| Cn1nc(C(F)(F)F)c(CSC2=NOC(C)(C)C2)c1OC(F)F | 39 to 40 |
| CSc1ncc(-c2ccccc2)c(Cl)n1 | 99 |
| COc1ccc(-c2ccc3c(c2)c2c(C=Cc4ccccc4)ccnc2n3S(=O)(=O)c2ccccc2)cc1 | 190 to 192 |
| CCCCc1nn(CC(=O)c2ccccc2)c(=O)n1Cc1ccc(-c2ccccc2-c2nnn[nH]2)cc1 | 89 to 92 |
| Nc1ccc(Oc2ccc(O)cc2)cc1 | 130 to 134 |
| Cn1nc(C(F)(F)F)c(C=O)c1O | 116 to 118 |
| COc1ccc(-c2nc3cnccc3[nH]2)c(O)c1 | 255 |
| Nc1ccncc1Oc1ccc2ccccc2c1 | 117 to 118 |
| N#CCc1ccccc1Oc1ccc(Br)cc1 | 56 to 58 |
| CCCCCCCCCCCCCCCCCCSC(C)(C)C(=O)CC(=O)Nc1ccccc1OC | 59 to 61 |

| SMILES | melting point [°C] |
| --- | --- |
| O=C1NC(=O)C(=Cc2ccc(OCCNc3nc4ccccc4o3)cc2)S1 | 242 to 245 |
| CCOC(=O)NNC(=O)NCC(=O)OC | 116 to 121 |
| Cc1cc(C)nc([NH+]([O-])C(=O)Cc2cccs2)c1 (stereo not drawn) | 154 to 155 |
| CC(=O)NC(Cc1ccccc1)C(=O)NC(Cc1ccccc1)C(=O)NC(Cc1c[nH]cn1)C(=O)O (stereo not drawn) (Ac-Phe-Phe-His-OH; configuration not given here) | 143 to 145 |
| CC(C)Oc1ccc(C(=O)n2nc(Nc3ccc(OCc4ccccc4)cc3)nc2N)cc1 | 79 to 81 |
| COc1ccc(C(O)(c2ccc(OC)cc2)C(O)(c2ccccc2)c2ccccc2)cc1 | 163 to 165 |
| Cn1cc(-c2cc3cccnc3[nH]2)c2cc(NS(C)(=O)=O)ccc21 | 223 to 224 |
| O=C(NCNc1c(Nc2cccnc2)c(=O)c1=O)c1ccc(Cl)cc1 | 174 to 176 |
| Cc1nc(NC(=O)CCc2ccccc2)sc1C(=O)NCc1ccccc1 | 63 to 65 |
| CN(C)Cc1ccc(CSCCNC(=O)NCCCCN(C)CCN(Cc2ccc(F)cc2)c2ccccn2)o1 | 74 |
| Cc1cc(-c2ccc(Cl)c(Cl)c2)nc(-n2cnc(-c3ncc(S(N)(=O)=O)s3)c2)n1 | 230 |
| CCCCCCCCCCCCCCCC(=O)OCCN(C)C | 46 to 48 |
| NCCOc1cccc(CC(Nc2cc(-c3ccc(OCc4ccccc4)cc3)ncn2)C(=O)O)c1 (stereo not drawn) | 154 |
| CC(=O)NC1C(O[Si](C)(C)C(C)(C)C)C=C(C(=O)O)OC1C(OCC(=O)O)C1COC(C)(C)O1 (stereo not drawn) | 130 |
| COc1ccnc(CC(C)(C)C(=O)O)c1 | 150 to 151 |
| CCn1c(OC)n[nH]c1=O | 130 |
| O=C1OC(CCc2ccccc2)(c2ccccc2)CC(O)=C1SCc1cccc2ccccc12 (stereo not drawn) | 132 to 134 |
| COC(=O)C(CCSC)NC(=O)C(CC(C)C)NC(=O)CNC(=O)C(NC(=O)C(Cc1ccccc1)NC(=O)C(C)NC(=O)OC(C)(C)C)C(C)C (stereo not drawn) (Boc-AFVGLM-OMe; configuration not given here) | 252 to 254 |
| COC(=O)[C@]1(F)[C@@H]2[C@H]1C(=O)C[C@H]2O[Si](C)(C)C(C)(C)C | 70 to 71 |
| O=c1c(OCCO)c(-c2ccc(OCc3ccccc3)c(OCc3ccccc3)c2)oc2cc(OCc3ccccc3)ccc12 | 137 |
| CCOC(=O)C1=C(COCCNc2nc(N)n[nH]2)NC(C)=C(C(=O)OC)C1c1cccc(C(F)(F)F)c1Cl (stereo not drawn) | 144 to 145 |
| CCN(CC)C(=O)C(C)Oc1cc(-c2ccccc2)cc2ccccc12 (stereo not drawn) | 109 |
| BrCc1cc2ccsc2c2ccccc12 | 99 to 101 |

Continued, values first:

| melting point [°C] | SMILES |
| --- | --- |
| 145 | CCCNc1c2c(nc3ccccc13)CCCC2=O |
| > 250 | CN1CC[C@@H]2CC(=O)c3cc(-c4ccccc4)ccc3[C@@H]2C1 (relative stereo) |
| 45 | CCC(CO)Nc1ccc(Cl)cc1[N+](=O)[O-] (stereo not drawn) |
| 194 to 195 | CC(=O)N(C)c1cccc(S(=O)(=O)c2ccc([N+](=O)[O-])cc2)c1 |
| 168 to 170 | CCn1c(=O)c(C(=O)O)c(-c2ccccc2Cl)c2cc(C)c(C)cc21 |
| 171 to 172 | CC(=S)NC[C@H]1CN(c2ccc(N3CCC(=C(C)C#N)CC3)c(F)c2)C(=O)O1 |
| 132 to 136 | CC(=O)NCCCn1cc(C2=C(c3cn(C)c4ccccc34)C(=O)NC2=O)c2ccccc21 |
| 101 | CC(O)C(CCCc1ccccc1)n1ncc2c(=O)[nH]c(Cc3ccc(Cl)cc3)nc21 (stereo not drawn) |
| 201 | COc1ccc2ccccc2c1CC(NC(C)=O)C(=O)O (stereo not drawn) |
| 162 to 163 | COc1cn(-c2ccc(N3CC(F)C3)cc2F)nc(-c2ccnn2-c2ccccc2)c1=O |
| 153 to 157 | Cc1cn(C2CC(C#N)C(COC(c3ccccc3)(c3ccccc3)c3ccccc3)O2)c(=O)[nH]c1=O (stereo not drawn) |
| 188 to 190 | CC1NC(=O)Nc2ccc(C(=O)CBr)cc21 (stereo not drawn) |
| 138 to 141 | COc1ccc(NN=C(Sc2ccc(C)c(C)c2)C(C)=O)cc1 |
| 269 to 270 | COc1cc(C)cc2nc(S(=O)(=O)Nc3c(Cl)cccc3Cl)nn12 |
| 306 to 312 | Cc1[nH]cc2c(=O)n(-c3ccc(Cl)cc3)nc-2c1-c1cccc(I)c1 |
| 195 to 196 | COc1ccc(Cn2c(C(=O)O)c(-c3ccc4c(c3)OCO4)c3ccccc32)c(OCC(=O)O)c1 |
| 126 to 128 | CCOc1ccc(C(=O)NCc2ccc3c(c2)C(=O)N(C2(C)CCC(=O)NC2=O)C3=O)nn1 (stereo not drawn) |
| 204 to 206 | NS(=O)(=O)c1ccn2c1C(=O)OCC2 |
| 159 to 160 | CNc1nc(C)nc(N2CCCc3ccccc32)n1 |
| 235 to 237 | COCc1cc2c(c3c1[nH]c1ccc(O)cc13)C(=O)N(CCN(C)C)C2=O |
| 170 to 171 | CCCCNC(=O)Nc1sc2c(c1C#N)CCCC2 |
| 199 to 205 | COCN1C(=O)C(NC(=O)Nc2cccc(C(=O)NS(C)(=O)=O)c2)CN(c2ccccc2)c2ccccc21 (stereo not drawn) |
| 210 to 212 | CC(C)(C)NC(=O)c1ccc(-c2ccc3nnn(Cc4ccc5ncccc5c4)c3n2)cc1F |
| 174 | COC(=O)C1CC(O)CN1C(=O)c1ccc(OC)c(OC)c1 (stereo not drawn) |
| 104 | CS(=O)(=O)c1ccc(-c2cc(CO)nn2CC2CCCCC2)cc1 |
| 50 to 51 | CCCNC(=O)n1nc(Oc2ccc(C(F)(F)F)cc2[N+](=O)[O-])cc1C |

| melting point [°C] | SMILES |
| --- | --- |
| 110 | COC(=O)NNC(=S)CC1CCCCO1 (stereo not drawn) |
| 231 to 232 | CCOCc1nc2c(N)nc3ccc(O)cc3c2n1CC(C)(C)NC(=O)C1CCCCC1 |
| 123 to 124 | O=C(NCc1cccs1)C1CC2C=CC1C2 (stereo not drawn) |
| 83 to 85 | CC(=O)NC(=O)OC[C@]1(C)S[C@@H]2[C@H](NC(=O)Cc3ccccc3)C(=O)N2[C@H]1C(=O)OCc1ccc([N+](=O)[O-])cc1 |
| 220 to 222 | O=C1OCCC12Sc1ccc(S(=O)(=O)N3CCOCC3)cc1C2=O (stereo not drawn) |
| 157 to 160 | Cc1nnnn1-c1ccccc1C(=O)O |
| 182 | O=C(COc1cc(-c2ccccc2)nc2ccc(Cl)cc12)N1CCOCC1 |
| 118 to 119 | COC(=O)c1cc(-c2ccc(OC)c(OC)c2)nn(CC=Cc2ccc(Cl)cc2)c1=O |
| 185 to 187 | CCc1cccc(NC(=O)c2nnn[nH]2)c1O |
| 210 to 211 | CC(C)(C)OC(=O)Nc1cccc(C2CCN(c3nc4c(cc3F)c(=O)c(C(=O)O)cn4C3CC3)C2)c1 (stereo not drawn) |
| 185 to 188 | O=C1CCCc2c1ccc(O)c2CCc1ccccc1 |
| 150 to 151 | CC(C)(C)c1ccc(C(CCCN2CCC(=NO)CC2)OC2CCCCO2)cc1 (stereo not drawn) |
| 165 | Cc1cc(C)c(C2CC(=O)C=C(O)C2)c(C)c1 (stereo not drawn) |
| 216 | O=C(O)C(c1ccccc1)C1CCN(c2ccc([N+](=O)[O-])cc2)CC1 (stereo not drawn) |
| 120 | CC(=CN1CCC(CCCC2CCN(C=C(C)c3ccccc3)CC2)CC1)c1ccccc1 |
| 134 to 137 | N#Cc1cccc(C2=NOC3(C2)OC(=O)c2ccccc23)c1 (stereo not drawn) |
| 187 to 191 | CNC(=O)Cn1c(-c2ccc(Br)o2)nc2cccnc21 |
| 127 to 128 | CC(C)(C)OC(=O)NCc1cccc(C(=O)O)c1 |
| 173 to 174 | CCc1cc2c(s1)S(=O)CCc1cc(=O)n(-c3ccc(Cl)cc3)nc1-2 (stereo not drawn) |
| 73 to 74 | O=C1NCC(CCc2ccccc2F)O1 (stereo not drawn) |
| 194 | CCOC(=O)C1=C(COCc2nnc(N)s2)NC(C)=C(C(=O)OC)C1c1cccc(Cl)c1Cl (stereo not drawn) |
| 151 to 152 | CC(=O)NCc1ccc(CN2CCN(c3ncc([N+](=O)[O-])s3)CC2)cc1 |
| 115 to 117 | C=CCNC(=O)c1ccc(N)cc1Br |
| 116 to 117 | COc1cc(C)ccc1CNC(=O)C(=O)NCCc1ccc(C)cn1 |
| 155 to 161 | CCCc1nc2c(N)nc(C)c(C)c2n1CCCCN1CCCS1(=O)=O |
| 99 to 110 | CCNC(=O)c1ccccc1Nc1nc(Nc2cc3c(cc2OC)CCN(CC(=O)NC)CC3)ncc1Cl |
